Experiments:
HIV-1MDR/TM(X4) = assay: microbe, parasite or virus in culture; type: cell-based; conditions: for fold change of EC50 compared to wild-type HIV-1ERS104pre: number in parentheses
HIV-1MDR/C(X4) = assay: microbe, parasite or virus in culture; type: cell-based; conditions: for fold change of EC50 compared to wild-type HIV-1ERS104pre: number in parentheses
[1] = system: panel of six multidrug resistant clinical HIV-1 variants; assay: microbe, parasite or virus in culture; type: cell-based; conditions: Human immunodeficiency virus 1, read-out: EC50 range across the panel
HIV-1MDR/B(X4) = assay: microbe, parasite or virus in culture; type: cell-based; conditions: for fold change of EC50 compared to wild-type HIV-1ERS104pre: number in parentheses
HIV-1MDR/JSL(R5) = assay: microbe, parasite or virus in culture; type: cell-based; conditions: for fold change of EC50 compared to wild-type HIV-1ERS104pre: number in parentheses
HIV-1MDR/G(X4) = assay: microbe, parasite or virus in culture; type: cell-based; conditions: for fold change of EC50 compared to wild-type HIV-1ERS104pre: number in parentheses
HIV-1MDR/MM(R5) = assay: microbe, parasite or virus in culture; type: cell-based; conditions: for fold change of EC50 compared to wild-type HIV-1ERS104pre: number in parentheses
[2] = system: HIV-1ERS104pre (wild-type X4); assay: Antiviral activity in PHA-PBMs, p24 Gag production, wild-type clinical isolate; type: cell-based
HIV-1LAI = assay: Antiviral activity in MT-2 cells exposed to HIV-1LAI, MTT assay; type: cell-based
[3] = In vitro blood-brain-barrier model, triple co-culture drug transport assay; conditions: rat, monkey
[4] = system: MT-2 human T-lymphoid cells
[5] = system: in vitro BBB model (rat astrocytes, pericytes and monkey endothelial cells)
[6] = Human immunodeficiency virus 1, T-lymphoid, in Homo sapiens
[7] = PHA-PBMs, p24 Gag production, mean ± 1 SD

CC(C)CN(C[C@@H](O)[C@H](Cc1ccccc1)NC(=O)O[C@H]1CCOC1)S(=O)(=O)c1ccc(N)cc1 [APV, amprenavir, reference compound]
fold change of EC50 compared to wild-type HIV-1ERS104pre (HIV-1MDR/TM(X4)): 12 | EC50 (HIV-1MDR/C(X4); Human immunodeficiency virus 1): 210 ± 20 nM | fold change of EC50 compared to wild-type HIV-1ERS104pre (HIV-1MDR/C(X4)): 7 | EC50 [1]: 210 to 630 nM | EC50 (HIV-1MDR/B(X4); Human immunodeficiency virus 1): 490 ± 50 nM | fold change of EC50 compared to wild-type HIV-1ERS104pre (HIV-1MDR/B(X4)): 15 | EC50 (HIV-1MDR/JSL(R5); Human immunodeficiency virus 1): 270 ± 10 nM | fold change of EC50 compared to wild-type HIV-1ERS104pre (HIV-1MDR/JSL(R5)): 9 | EC50 (HIV-1MDR/G(X4); Human immunodeficiency virus 1): 310 ± 80 nM | fold change of EC50 compared to wild-type HIV-1ERS104pre (HIV-1MDR/G(X4)): 11 | EC50 (HIV-1MDR/MM(R5); Human immunodeficiency virus 1): 630 ± 9 nM | fold change of EC50 compared to wild-type HIV-1ERS104pre (HIV-1MDR/MM(R5)): 22

CC(C)CN(C[C@@H](O)[C@H](Cc1ccccc1)NC(=O)O[C@H]1CO[C@H]2OCC[C@H]21)S(=O)(=O)c1ccc(N)cc1 [Darunavir, darunavir, reference compound]
EC50 (HIV-1MDR/TM(X4); Human immunodeficiency virus 1): 30 ± 10 nM | EC50 (HIV-1MDR/C(X4); Human immunodeficiency virus 1): 5 ± 1 nM | EC50 (HIV-1MDR/JSL(R5); Human immunodeficiency virus 1): 10 ± 1 nM | EC50 ([2]; Human immunodeficiency virus 1): 4 ± 1 nM | EC50 (HIV-1LAI; [6]): 5 nM | Papp at 30 min, 100 μM [3]: 9.32 ± 2.25 ×10⁻⁶ cm/s | EC50 (HIV-1MDR/G(X4); Human immunodeficiency virus 1): 14 ± 9 nM | EC50 (HIV-1MDR/MM(R5); Human immunodeficiency virus 1): 25 ± 2 nM

COc1ccc(S(=O)(=O)N(CC(C)C)C[C@@H](O)[C@H](Cc2ccccc2)NC(=O)OC2CO[C@H]3OCC(F)(F)[C@@H]23)cc1 (stereo partly drawn) [Inhibitor 3]
EC50 (HIV-1MDR/TM(X4); [7]): 4 ± 1 nM | fold change of EC50 compared to wild-type HIV-1ERS104pre (HIV-1MDR/TM(X4)): 2 | CC50 [4]: 17.5 µM | EC50 (HIV-1MDR/C(X4); [7]): 2 ± 1 nM | fold change of EC50 compared to wild-type HIV-1ERS104pre (HIV-1MDR/C(X4)): 1 | EC50 (HIV-1MDR/B(X4); [7]): 14 ± 1 nM | fold change of EC50 compared to wild-type HIV-1ERS104pre (HIV-1MDR/B(X4)): 7 | EC50 (HIV-1MDR/JSL(R5); [7]): 2 ± 1 nM | fold change of EC50 compared to wild-type HIV-1ERS104pre (HIV-1MDR/JSL(R5)): 1 | EC50 [2, 7]: 2.3 ± 0.1 nM | Papp (apparent permeability coefficient) [5]: 50.38 ± 10.61 10^−6 cm/s | EC50 (HIV-1MDR/G(X4); [7]): 4 ± 1 nM | fold change of EC50 compared to wild-type HIV-1ERS104pre (HIV-1MDR/G(X4)): 2 | EC50 (HIV-1MDR/MM(R5); [7]): 21 ± 4 nM | fold change of EC50 compared to wild-type HIV-1ERS104pre (HIV-1MDR/MM(R5)): 10

CC(C)CN(C[C@@H](O)[C@H](Cc1ccccc1)NC(=O)O[C@H]1CO[C@H]2OCC(F)(F)[C@H]21)S(=O)(=O)c1ccc(N)cc1 [Inhibitor 4]
EC50 (HIV-1MDR/TM(X4); [7]): 4 ± 1 nM | fold change of EC50 compared to wild-type HIV-1ERS104pre (HIV-1MDR/TM(X4)): 2 | CC50 [4]: 37 µM | EC50 (HIV-1MDR/C(X4); [7]): 2 ± 1 nM | fold change of EC50 compared to wild-type HIV-1ERS104pre (HIV-1MDR/C(X4)): 1 | EC50 (HIV-1MDR/B(X4); [7]): 11 ± 1 nM | fold change of EC50 compared to wild-type HIV-1ERS104pre (HIV-1MDR/B(X4)): 3 | fold change of EC50 compared to wild-type HIV-1ERS104pre (HIV-1MDR/JSL(R5)): 1 | EC50 [2, 7]: 2.7 ± 0.3 nM | Papp (apparent permeability coefficient) [5]: 60.84 ± 3.97 10^−6 cm/s | EC50 (HIV-1LAI; MT-2 human T-lymphoid cells exposed to HIVLAI): 3 nM | EC50 (HIV-1MDR/G(X4); [7]): 4 ± 1 nM | fold change of EC50 compared to wild-type HIV-1ERS104pre (HIV-1MDR/G(X4)): 1 | EC50 (HIV-1MDR/MM(R5); [7]): 20 ± 0.2 nM | fold change of EC50 compared to wild-type HIV-1ERS104pre (HIV-1MDR/MM(R5)): 7

CC(C)(C)NC(=O)[C@@H]1C[C@@H]2CCCC[C@@H]2CN1C[C@@H](O)[C@H](Cc1ccccc1)NC(=O)[C@H](CC(N)=O)NC(=O)c1ccc2ccccc2n1 [saquinavir]
EC50 (HIV-1LAI; [6]): 21 nM

— paper PMC4419590 (ChemMedChem, 2014)
